Our source for the IC50 values is patent publication EP4104902B1, “COMPOUNDS AND M[…] SAME” (priority 2020, dated 2021).

Where only a bound is given, the exact number is not on record here.

For the first test, the system named is recombinant rabies virus 1088 strain expressing Gaussia Luciferase (GLuc) (1088/GLuc). It counts as cell-based. Particulars: read-out: Anti-rabies activity.
As for `CC(C)CNC(=O)[C@]12NC[C@@H]3C[C@H]1CN(Cc1ccc(F)cc1)[C@H]2[C@@H]3CC(C)C` (relative stereo) [IB-630], the IC50 was less than 5 µM.

Consider `CC(C)CN1C[C@H]2C[C@]3(C(=O)NCc4ccc(O)cc4)NC[C@H]2[C@H]1[C@H]3CCc1ccccc1` (relative stereo) [IF-576], for which the IC50 lay in the range of 10 to 30 µM.

Regarding `CC(C)CCNC(=O)C12CC3CN(CCCNC(=N)N)C(C3CN1)C2Cc1cccc2ccccc12` (centres unmarked) [IF-356], the IC50 lay within 10 to 30 µM.

For the compound `CC(C)CCN1C[C@@H]2C[C@H]3CN[C@]2(C(=O)NCCC(N)=O)[C@@H]1[C@@H]3CCc1ccccc1` (relative stereo) [IB-636], the IC50 fell in the range of 10 to 30 µM.

Regarding `CC(C)CC1C2C=NC3(C(=O)NCc4ccccc4)C(C2)CN(Cc2ccc(N(C)C)cc2)C13` (centres unmarked) [IIB-94], the IC50 lay in the range of 5 to 10 µM.

Take `CC(C)CNC(=O)[C@]12NC[C@@H]3C[C@H]1CN(CC1CCCCC1)[C@H]2[C@@H]3Cc1ccc(O)cc1` (relative stereo) [IB-770]: the IC50 lay within 10 to 30 µM.

As to `CC(C)CC[C@@H]1[C@@H]2CN[C@@]3(C(=O)NCc4ccc(F)cc4)[C@@H](C2)CN(CCO)[C@@H]13` (relative stereo) [IB-657], the IC50 fell in the range of 10 to 30 µM.

Turning to `CC(C)C[C@@H]1[C@@H]2[C@@H]3CN[C@@]1(C(=O)NCc1cccc4ccccc14)C[C@@H]3CN2CC(C)C` (relative stereo) [IF-726], the IC50 lay in the range of 10 to 30 µM.

For `O=C(NCc1ccc(F)cc1)[C@]12NC[C@@H]3C[C@H]1CN(CCc1ccccc1)[C@H]2[C@@H]3Cc1ccc(O)cc1` (relative stereo) [IB-642], the IC50 was less than 5 µM.

As for `CC(C)CCNC(=O)[C@@]12C[C@@H]3CN(Cc4ccc(F)cc4)[C@@H]([C@@H]3CN1)[C@H]2CC(C)C` (relative stereo) [IF-585], the IC50 is less than 5 µM.

With `CC(C)CCN1C[C@H]2C[C@]3(C(=O)NCc4cccc(Cl)c4)N=C[C@H]2[C@H]1[C@H]3Cc1ccccc1` (relative stereo) [IIF-325], the IC50 was less than 5 µM.

`NC(=O)CN1CC2CC3(C(=O)NCCc4ccccc4)NCC2C1C3Cc1cccc2ccccc12` (centres unmarked) [IF-90]: the IC50 lay in the range of 10 to 30 µM.

On to `CC(C)C[C@@H]1[C@@H]2CN[C@@]3(C(=O)NCc4cccc5ccccc45)[C@@H](C2)CN(Cc2ccc(O)cc2)[C@@H]13` (relative stereo) [IB-541], for which the IC50 was less than 5 µM.

On to `CC(C)C[C@@H]1[C@@H]2[C@@H]3CN[C@@]1(C(=O)NCc1ccccc1)C[C@@H]3CN2CC1CCCCC1` (relative stereo) [IF-644], for which the IC50 was less than 5 µM.

Turning to `COc1ccc(CNC(=O)[C@@]23C[C@@H]4CN(CCC(C)C)[C@@H]([C@@H]4C=N2)[C@H]3Cc2ccccc2)cc1` (relative stereo) [IIF-329], the IC50 is less than 5 µM.

Turning to `CC(C)CC[C@@H]1[C@@H]2CN[C@@]3(C(=O)NCC(C)C)[C@@H](C2)CN(CC(C)C)[C@@H]13` (relative stereo) [IB-378], the IC50 was less than 5 µM.

Consider `O=C(NCc1cccc2ccccc12)[C@@]12C[C@@H]3CN(CCO)[C@@H]([C@@H]3CN1)[C@H]2Cc1ccccc1` (relative stereo) [IF-758], for which the IC50 is less than 5 µM.

For the compound `O=C(NCCc1ccccc1)[C@@]12C[C@@H]3CN(CC4CCCCC4)[C@@H]([C@@H]3CN1)[C@H]2Cc1ccccc1` (relative stereo) [IF-710], the IC50 was less than 5 µM.

Consider `CC(C)CNC(=O)C12CC3CN(Cc4cccc5ccccc45)C(C3CN1)C2CC(N)=O` (centres unmarked) [IF-226], for which the IC50 lay within 10 to 30 µM.

With `NC(=O)CN1C[C@H]2C[C@]3(C(=O)NCc4cccc5ccccc45)NC[C@H]2[C@H]1[C@H]3Cc1ccccc1` (relative stereo) [IF-82], the IC50 lay within 10 to 30 µM.

Turning to `NC(=O)CCNC(=O)[C@]12NC[C@@H]3C[C@H]1CN(Cc1ccccc1)[C@H]2[C@@H]3CCc1ccccc1` (relative stereo) [IB-535], the IC50 was 10 to 30 µM.

Take `CC(C)CCNC(=O)[C@]12NC[C@@H]3C[C@H]1CN(CC(C)C)[C@H]2[C@@H]3CCCNC(=N)N` (relative stereo) [IB-192]: the IC50 was less than 5 µM.

For the compound `CC(C)C[C@@H]1[C@@H]2[C@@H]3CN[C@@]1(C(=O)NCc1ccc(O)cc1)C[C@@H]3CN2CCc1ccccc1` (relative stereo) [IF-470], the IC50 is 10 to 30 µM.

Take `CC(C)CC[C@@H]1[C@@H]2CN[C@@]3(C(=O)NCCCNC(=N)N)[C@@H](C2)CN(Cc2cccc4ccccc24)[C@@H]13` (relative stereo) [IB-353]: the IC50 is less than 5 µM.

Turning to `CC(C)CC[C@@H]1[C@@H]2CN[C@@]3(C(=O)NCCO)[C@@H](C2)CN(Cc2ccccc2)[C@@H]13` (relative stereo) [IB-680], the IC50 was 10 to 30 µM.

In the case of `N=C(N)NCCC[C@@H]1[C@@H]2[C@@H]3CN[C@@]1(C(=O)NCc1ccc(F)cc1)C[C@@H]3CN2Cc1cccc2ccccc12` (relative stereo) [IF-245], the IC50 is less than 5 µM.

Consider `CC(C)CC[C@@H]1[C@@H]2[C@@H]3CN[C@@]1(C(=O)NCCc1ccccc1)C[C@@H]3CN2CC(C)C` (relative stereo) [IF-727], for which the IC50 is less than 5 µM.

Take `CC(C)CCNC(=O)[C@@]12C[C@@H]3CN(CC4CCCCC4)[C@@H]([C@@H]3CN1)[C@H]2CC(C)C` (relative stereo) [IF-659]: the IC50 was 10 to 30 µM.

Consider `CC(C)C[C@@H]1[C@@H]2CN[C@@]3(C(=O)NCc4cccc5ccccc45)[C@@H](C2)CN(CCO)[C@@H]13` (relative stereo) [IB-585], for which the IC50 is 10 to 30 µM.

In the case of `Cc1cccc(CNC(=O)[C@]23NC[C@@H]4C[C@H]2CN(CC(C)C)[C@H]3[C@@H]4Cc2ccccc2)c1` (relative stereo) [IB-15], the IC50 lay within 10 to 30 µM.

As to `CC(C)CNC(=O)[C@@]12C[C@@H]3CN(Cc4ccccc4)[C@@H]([C@@H]3CN1)[C@H]2CCc1ccccc1` (relative stereo) [IF-670], the IC50 is less than 5 µM.

In the case of `CC(C)C[C@@H]1[C@@H]2[C@@H]3CN[C@@]1(C(=O)NCc1ccc(O)cc1)C[C@@H]3CN2CC1CCCCC1` (relative stereo) [IF-478], the IC50 is less than 5 µM.

As for `CC(C)CC[C@@H]1[C@@H]2CN[C@@]3(C(=O)NCCC(N)=O)[C@@H](C2)CN(Cc2cccc4ccccc24)[C@@H]13` (relative stereo) [IB-349], the IC50 was less than 5 µM.

Regarding `N=C(N)NCCCNC(=O)[C@]12NC[C@@H]3C[C@H]1CN(CCc1ccccc1)[C@H]2[C@@H]3Cc1cccc2ccccc12` (relative stereo) [IB-347], the IC50 was 10 to 30 µM.

`CC(C)CC[C@@H]1[C@@H]2[C@@H]3CN[C@@]1(C(=O)NCCC(N)=O)C[C@@H]3CN2Cc1cccc2ccccc12` (relative stereo) [IF-384]: the IC50 fell in the range of 10 to 30 µM.

On to `Cc1cccc(C[C@@H]2[C@@H]3[C@@H]4CN[C@@]2(C(=O)NCc2ccccc2)C[C@@H]4CN3CC(C)C)c1` (relative stereo) [IF-13], for which the IC50 is 10 to 30 µM.

With `O=C(NCc1ccc(O)cc1)[C@@]12C[C@@H]3CN(Cc4ccccc4)[C@@H]([C@@H]3CN1)[C@H]2Cc1ccccc1` (relative stereo) [IF-494], the IC50 was 10 to 30 µM.

For `COc1ccc(CN2CC3CC4C=NC3(C(=O)NCc3ccccc3)C2C4CC(C)C)cc1` (centres unmarked) [IIB-85], the IC50 was in the range of 5 to 10 µM.

For `CC(C)CC[C@@H]1[C@@H]2[C@@H]3CN[C@@]1(C(=O)NCc1cccc4ccccc14)C[C@@H]3CN2CC(N)=O` (relative stereo) [IF-84], the IC50 is 10 to 30 µM.

Regarding `NC(=O)CN1CC2CC3CNC2(C(=O)NCc2ccccc2)C1C3CCc1ccccc1` (centres unmarked) [IB-130], the IC50 lay in the range of 10 to 30 µM.

As to `CC(C)NC(=O)[C@@]12C[C@@H]3CN(Cc4cccc5ccccc45)[C@@H]([C@@H]3CN1)[C@H]2CCc1ccccc1` (relative stereo) [IF-789], the IC50 was in the range of 10 to 30 µM.

`O=C(NCc1ccccc1)[C@@]12C[C@@H]3CN(Cc4cccc5ccccc45)[C@@H]([C@@H]3CN1)[C@H]2Cc1ccc(O)cc1` (relative stereo) [IF-505]: the IC50 was less than 5 µM.

For `NC(=O)CN1C[C@@H]2C[C@H]3CN[C@]2(C(=O)NCc2cccc4ccccc24)[C@@H]1[C@@H]3Cc1ccc(O)cc1` (relative stereo) [IB-83], the IC50 fell in the range of 10 to 30 µM.

Take `CC(C)CC[C@@H]1[C@@H]2[C@@H]3CN[C@@]1(C(=O)NCCC(N)=O)C[C@@H]3CN2CC(C)C` (relative stereo) [IF-300]: the IC50 was in the range of 10 to 30 µM.

`NC(=O)CCNC(=O)C12NCC3CC1CN(Cc1ccc(F)cc1)C2C3Cc1ccccc1` (centres unmarked) [IB-712]: the IC50 is less than 5 µM.

Regarding `CC(C)CC1C2C=NC3(C(=O)NCc4ccccc4)C(C2)CN(Cc2ccc(Cl)cc2)C13` (centres unmarked) [IIB-83], the IC50 was less than 5 µM.

As to `CC(C)C[C@@H]1[C@@H]2CN[C@@]3(C(=O)NC(C)C)[C@@H](C2)CN(CCCNC(=N)N)[C@@H]13` (relative stereo) [IB-176], the IC50 lay in the range of 10 to 30 µM.

Take `CC(C)CNC(=O)[C@@]12C[C@@H]3CN(CC(C)C)[C@@H]([C@@H]3CN1)[C@H]2CCc1ccccc1` (relative stereo) [IF-679]: the IC50 is less than 5 µM.

With `CCOc1ccc(CN2CC3CC4(C(=O)NCc5ccccc5)N=CC3C2C4CC(C)C)cc1` (centres unmarked) [IIF-97], the IC50 was in the range of 10 to 30 µM.

Regarding `COc1ccc(CNC(=O)C23N=CC4CC2CN(CC(C)C)C3C4CCc2ccccc2)cc1` (centres unmarked) [IIB-333], the IC50 was less than 5 µM.

Consider `CC(C)CCN1CC2CC3(C(=O)NC(C)C)NCC2C1C3CCCNC(=N)N` (centres unmarked) [IF-214], for which the IC50 was 10 to 30 µM.

Consider `CC(C)CN1CC2CC3CNC2(C(=O)NCc2ccc(F)cc2)C1C3Cc1ccc(O)cc1` (centres unmarked) [IB-498], for which the IC50 was less than 5 µM.

Regarding `N=C(N)NCCC[C@@H]1[C@@H]2CN[C@@]3(C(=O)NCCc4ccccc4)[C@@H](C2)CN(Cc2ccc(F)cc2)[C@@H]13` (relative stereo) [IB-262], the IC50 was in the range of 10 to 30 µM.

Regarding `CC(C)CCN1CC2CC3CNC2(C(=O)NCc2ccc(F)cc2)C1C3CCC(=O)O` (centres unmarked) [IB-386], the IC50 is 10 to 30 µM.

For the compound `O=C(NCc1ccc(F)cc1)[C@@]12C[C@@H]3CN(CCO)[C@@H]([C@@H]3CN1)[C@H]2CCc1ccccc1` (relative stereo) [IF-516], the IC50 is less than 5 µM.

As to `CC(C)CC1C2CNC3(C(=O)NCc4ccccc4)C(C2)CN(Cc2cccc(Cl)c2)C13` (centres unmarked) [IB-865], the IC50 fell in the range of 5 to 10 µM.

As for `CC(C)CCN1C[C@H]2C[C@]3(C(=O)NCc4ccc(O)cc4)NC[C@H]2[C@H]1[C@H]3Cc1ccccc1` (relative stereo) [IF-466], the IC50 was in the range of 10 to 30 µM.

The same test, now with this note: read-out: IC50.
Consider `Cc1cccc(CNC(=O)[C@]23NC[C@@H]4C[C@H]2CN(CC(C)C)[C@H]3[C@@H]4Cc2ccccc2)c1` (relative stereo) [IB-15], for which the IC50 came out at 15.9 µM.

Take `Cc1cccc(C[C@@H]2[C@@H]3[C@@H]4CN[C@@]2(C(=O)NCc2ccccc2)C[C@@H]4CN3CC(C)C)c1` (relative stereo) [IF-13]: the IC50 was determined as 13.1 µM.
